Values after ≈ are worked out from the molar mass of the structure shown. Values joined by “and” are separate entries in the source; they are usually repeats but may differ in a detail not shown here. Identical values can stand only once. Each block holds one compound with its values, some of them ahead of it.
Experiments:
Assay in all cases: ≥ marks a high value that may be exact or a test limit, other limits are often not marked, values filed in µg/mL are converted to µM
[1] = tested on: Enterobacter cloacae BCRC 10401
[2] = tested on: Escherichia coli BCRC 10675
[3] = tested on: Klebsiella aerogenes BCRC 10370
[4] = tested on: Klebsiella oxytoca BCRC 13985
Lactococcus garvieae = tested on: Lactococcus garvieae
[5] = tested on: Listeria monocytogenes BCRC 14845
[6] = tested on: Pseudomonas aeruginosa BCRC 10944
[7] = tested on: Staphylococcus aureus BCRC 10780
[8] = tested on: Staphylococcus aureus BCRC 10781
[9] = tested on: Staphylococcus xylosus BCRC 12930
[10] = tested on: Streptococcus equinus BCRC 14729
Streptococcus iniae = tested on: Streptococcus iniae
[11] = tested on: Vibrio alginolyticus BCRC 12829
Vibrio alginolyticus = tested on: Vibrio alginolyticus
[12] = tested on: Vibrio anguillarum serotype O1
Vibrio harveyi = tested on: Vibrio harveyi
[13] = tested on: Vibrio parahaemolyticus BCRC 10806
Vibrio parahaemolyticus = tested on: Vibrio parahaemolyticus
[14] = tested on: Yersinia enterocolitica BCRC 13999
[15] = tested on: Batrachochytrium dendrobatidis
[16] = tested on: Bacteroides fragilis ATCC 25285
Bacteroides fragilis = tested on: Bacteroides fragilis
[17] = tested on: Candida albicans ATCC 900280
[18] = tested on: Candida albicans ATCC 90028
[19] = tested on: Clostridium perfringens ATCC 10543
Clostridium septicum = tested on: Clostridium septicum
[20] = tested on: Clostridium tertium ATCC 19465
[21] = tested on: Cutibacterium acnes ATCC 11828
Cutibacterium acnes = tested on: Cutibacterium acnes
[22] = tested on: Enterobacter cloacae HNTCC 53001
[23] = tested on: Enterococcus faecalis ATCC 29212
[24] = tested on: Escherichia coli ATCC 25726
[25] = tested on: Escherichia coli ATCC 25922
Fusobacterium nucleatum = tested on: Fusobacterium nucleatum
[26] = tested on: Fusobacterium varium ATCC 27725
[27] = tested on: Klebsiella pneumoniae KK3 9904
[28] = tested on: Peptoniphilus asaccharolyticus ATCC 29743
[29] = tested on: Peptostreptococcus anaerobius
[30] = tested on: Prevotella melaninogenica
[31] = tested on: Proteus mirabilis ATCC 25933
[32] = tested on: Pseudomonas aeruginosa ATCC 27853
[33] = tested on: Salmonella enterica subsp. enterica serovar Typhimurium LT2
[34] = tested on: Staphylococcus aureus ATCC 25923
[35] = tested on: Staphylococcus aureus NCTC 8325
[36] = tested on: Staphylococcus aureus T7/5
[37] = tested on: Staphylococcus epidermidis RP62A

MIC [1]: 7.27 µM
MIC [2]: 14.5 µM
MIC [3]: 14.5 µM
MIC [4]: ≥ 58.2 µM
MIC (Lactococcus garvieae): ≥ 116 µM
MIC [5]: ≥ 58.2 µM
MIC [6]: 29.1 µM
MIC [7]: 29.1 µM
MIC [8]: 29.1 µM
MIC [9]: 29.1 µM
MIC [10]: ≥ 58.2 µM
MIC (Streptococcus iniae): ≥ 58.2 µM
MIC [11]: ≥ 58.2 µM
MIC (Vibrio alginolyticus): 7.27 µM
MIC [12]: 7.27 µM
MIC (Vibrio harveyi): 7.27 µM
MIC [14]: ≥ 116 µM
Compound: CC[C@H](C)[C@H](NC(=O)[C@H](CCCCN)NC(=O)[C@H](CCCCN)NC(=O)[C@H](C)NC(=O)[C@H](Cc1ccccc1)NC(=O)[C@@H](NC(=O)[C@H](C)NC(=O)[C@H](CC(C)C)NC(=O)[C@H](CCCCN)NC(=O)[C@H](CCCCN)NC(=O)[C@H](C)NC(=O)[C@H](C)NC(=O)[C@H](CC(N)=O)NC(=O)[C@H](C)NC(=O)CN)[C@@H](C)O)C(=O)N[C@@H](Cc1ccccc1)C(=O)N[C@H](C(=O)N[C@@H](C)C(=O)N[C@@H](Cc1ccc(O)cc1)C(=O)N[C@@H](Cc1c[nH]c2ccccc12)C(=O)O)[C@@H](C)O [GANAAKKLATFAKKIFTAYW]
MIC [13]: ≥ 58.2 µM
MIC (Vibrio parahaemolyticus): 7.27 µM

MIC [15]: ≥ 50 µM
Compound: CC[C@H](C)[C@H](NC(=O)CN)C(=O)N[C@@H](CCSC)C(=O)N[C@@H](CC(=O)O)C(=O)N[C@@H](CO)C(=O)N[C@H](C(=O)N[C@@H](CCCCN)C(=O)NCC(=O)N[C@@H](C)C(=O)N[C@@H](C)C(=O)N[C@@H](CCCCN)C(=O)N[C@@H](CCC(=O)O)C(=O)N[C@H](C(=O)N[C@@H](C)C(=O)NCC(=O)N[C@@H](Cc1cnc[nH]1)C(=O)N[C@@H](CC(C)C)C(=O)N[C@@H](CC(C)C)C(=O)N[C@@H](CC(=O)O)C(=O)N[C@@H](CC(N)=O)C(=O)N[C@@H](CC(C)C)C(=O)N[C@@H](CCCCN)C(=O)N[C@H]1CSSC[C@@H](C(=O)O)NC(=O)CNC(=O)[C@H]([C@@H](C)O)NC(=O)[C@H]([C@@H](C)CC)NC(=O)[C@H](CCCCN)NC1=O)[C@@H](C)CC)[C@@H](C)CC [GIMDSIKGAAKEIAGHLLDNLKCKITGC]

MIC [16]: ≥ 50 µM
MIC (Bacteroides fragilis): ≥ 50 µM
MIC [17]: 16 µM (≈ 25.1 µg/mL)
MIC [18]: ≥ 40 µM and 25 µM
MIC [19]: 6 µM (≈ 9.4 µg/mL)
MIC (Clostridium septicum): 12.5 µM (≈ 19.6 µg/mL)
MIC [20]: 3 µM (≈ 4.7 µg/mL)
MIC [21]: 6 µM (≈ 9.4 µg/mL)
MIC (Cutibacterium acnes): 6 µM (≈ 9.4 µg/mL)
MIC [22]: ≥ 32 µM
MIC [23]: 16 µM (≈ 25.1 µg/mL)
MIC [24]: ≥ 32 µM
MIC [25]: 20 µM (≈ 31.3 µg/mL)
MIC (Fusobacterium nucleatum): 25 µM (≈ 39.1 µg/mL)
MIC [26]: ≥ 50 µM
MIC [27]: ≥ 32 µM
MIC [28]: 25 µM (≈ 39.1 µg/mL)
MIC [29]: 12.5 µM (≈ 19.6 µg/mL)
MIC [30]: 12.5 µM (≈ 19.6 µg/mL)
MIC [31]: ≥ 128 µM
MIC [32]: 32 µM (≈ 50.1 µg/mL)
MIC [33]: ≥ 32 µM
MIC [34]: 8 µM (≈ 12.5 µg/mL)
MIC [35]: 6.32 µM (≈ 9.9 µg/mL)
MIC [36]: 10 µM (≈ 15.7 µg/mL)
MIC [37]: 4 µM (≈ 6.26 µg/mL)
Compound: CC[C@H](C)[C@H](NC(=O)[C@H](CCCCN)NC(=O)[C@H](CCCCN)NC(=O)[C@H](C)NC(=O)[C@H](CC(C)C)NC(=O)[C@H](CC(N)=O)NC(=O)[C@@H](NC(=O)[C@H](CC(C)C)NC(=O)[C@@H](NC(=O)CNC(=O)[C@H](CC(C)C)NC(=O)[C@H](Cc1ccccc1)NC(=O)[C@@H](N)Cc1cnc[nH]1)[C@@H](C)O)C(C)C)C(=O)N[C@@H](CC(C)C)C(N)=O [HFLGTLVNLAKKIL]
